# Experimental data as given in patent publication US10421761B2, “Compounds for kinase modulation, and indications therefor” (Plexxikon Inc., priority 2013, dated 2019).
# Tested on: B9 cells
# Conditions: B9 cells
structure (smiles),measurement,setting,value
CCCS(=O)(=O)Nc1ccc(F)c(C(=O)c2c[nH]c3ncc(-c4ccc(Cl)cc4)cc23)c1F [vemurafenib],"probe 1455104_at response, Mxd1 (MAX dimerization protein 1)",Repl. 1,2.60
same,"probe 1455241_at response, BC037703 (cDNA sequence BC037703)",Repl. 1,0.44
same,"probe 1455299_at response, Vgll3 (vestigial like 3 (Drosophila))",Repl. 1,0.50
same,"probe 1455981_at response, Gm11263 /// Gm12242 /// Gm13654 /// Gm14138 /// Gm16406 /// Gm4796 /// Gm6476 /// Gm9143 /// LOC100043734 /// LOC236932 /// LOC623245 /// LOC639593 /// Rps6",Repl. 1,0.41
same,"probe 1456150_at response, Jhdm1d (jumonji C domain-containing histone demethylase 1 homolog D (S. cerevisiae))",Repl. 1,1.99
same,"probe 1456174_x_at response, Ndrg1 (N-myc downstream regulated gene 1)",Repl. 1,1.92
same,"probe 1456248_at response, Lce3f /// LOC630971 (late cornified envelope 3F /// hypothetical protein LOC630971)",Repl. 1,2.26
same,"probe 1456284_at response, Tmem171 (transmembrane protein 171)",Repl. 1,2.10
same,"probe 1456321_at response, Nipal1 (NIPA-like domain containing 1)",Repl. 1,3.42
same,"probe 1456725_x_at response, Ezr (ezrin)",Repl. 1,0.48
same,"probe 1456874_at response, Flrt2 (fibronectin leucine rich transmembrane protein 2)",Repl. 1,0.52
same,"probe 1457042_at response, AI256396 (EST AI256396)",Repl. 1,0.48
same,"probe 1457568_at response, Hnrnpd (heterogeneous nuclear ribonucleoprotein D)",Repl. 1,0.44
same,"probe 1457666_s_at response, Ifi202b (interferon activated gene 202B)",Repl. 1,3.60
same,"probe 1460220_a_at response, Csf1 (colony stimulating factor 1 (macrophage))",Repl. 1,0.40
same,"probe 1460302_at response, Thbs1 (thrombospondin 1)",Repl. 1,0.49
same,"probe 1460472_at response, Cdk3 (cyclin-dependent kinase 3)",Repl. 1,1.91
same,"probe 1460521_a_at response, Obfc2a (oligonucleotide/oligosaccharide-binding fold containing 2A)",Repl. 1,3.03
same,"probe 1460695_a_at response, 2010111I01Rik (RIKEN cDNA 2010111I01 gene)",Repl. 1,0.51
same,"probe 1415828_a_at response, Serp1 (stress-associated endoplasmic reticulum protein 1)",Repl. 2,1.88
same,"probe 1415936_at response, Bcar3 (breast cancer anti-estrogen resistance 3)",Repl. 2,2.16
same,"probe 1416129_at response, Errfi1 (ERBB receptor feedback inhibitor 1)",Repl. 2,3.11
same,"probe 1416246_a_at response, Coro1a (coronin, actin binding protein 1A)",Repl. 2,2.19
same,"probe 1416325_at response, Crisp 1 (cysteine-rich secretory protein 1)",Repl. 2,4.39
same,"probe 1416401_at response, Cd82 (CD82 antigen)",Repl. 2,2.64
same,"probe 1416488_at response, Ccng2 (cyclin G2)",Repl. 2,2.31
same,"probe 1416527_at response, Rab32 (RAB32, member RAS oncogene family)",Repl. 2,0.48
same,"probe 1417065_at response, Egr1 (early growth response 1)",Repl. 2,4.50
same,"probe 1417130_s_at response, Angptl4 (angiopoietin-like 4)",Repl. 2,2.79
same,"probe 1417328_at response, Ercc1 (excision repair cross-complementing rodent repair deficiency, complementation group 1)",Repl. 2,2.01
same,"probe 1417488_at response, Fosl1 (fos-like antigen 1)",Repl. 2,2.05
same,"probe 1417494_a_at response, Cp (ceruloplasmin)",Repl. 2,0.43
same,"probe 1417495_x_at response, Cp (ceruloplasmin)",Repl. 2,0.51
same,"probe 1417533_a_at response, Itgb5 (integrin beta 5)",Repl. 2,0.51
same,"probe 1417625_s_at response, Cxcr7 (chemokine (C-X-C motif) receptor 7)",Repl. 2,2.03
same,"probe 1417677_at response, Opn3 (opsin 3)",Repl. 2,2.39
same,"probe 1417812_a_at response, Lamb3 (laminin, beta 3)",Repl. 2,2.38
same,"probe 1417837_at response, Phlda2 (pleckstrin homology-like domain, family A, member 2)",Repl. 2,2.11
same,"probe 1417902_at response, Slc19a2 (solute carrier family 19 (thiamine transporter), member 2)",Repl. 2,2.07
same,"probe 1417962_s_at response, Ghr (growth hormone receptor)",Repl. 2,2.14
same,"probe 1418349_at response, Hbegf (heparin-binding EGF-like growth factor)",Repl. 2,2.70
same,"probe 1418350_at response, Hbegf (heparin-binding EGF-like growth factor)",Repl. 2,2.46
same,"probe 1418538_at response, Kdelr3 (KDEL (Lys-Asp-Glu-Leu) endoplasmic reticulum protein retention receptor 3)",Repl. 2,2.02
same,"probe 1418539_a_at response, Ptpre (protein tyrosine phosphatase, receptor type, E)",Repl. 2,1.89
same,"probe 1419149_at response, Serpine1 (serine (or cysteine) peptidase inhibitor, clade E, member 1)",Repl. 2,1.99
same,"probe 1419188_s_at response, Ccl27a /// Gm13306 (chemokine (C-C motif) ligand 27A /// predicted gene 13306)",Repl. 2,2.36
same,"probe 1419317_x_at response, Lce3c (late cornified envelope 3C)",Repl. 2,2.58
same,"probe 1419322_at response, Fgd6 (FYVE, RhoGEF and PH domain containing 6)",Repl. 2,2.45
same,"probe 1419529_at response, Il23a (interleukin 23, alpha subunit p19)",Repl. 2,2.53
same,"probe 1419671_a_at response, Il17rc (interleukin 17 receptor C)",Repl. 2,0.45
same,"probe 1419722_at response, Klk8 (kallikrein related-peptidase 8)",Repl. 2,1.94
same,"probe 1419816_s_at response, Errfi1 (ERBB receptor feedback inhibitor 1)",Repl. 2,3.39
same,"probe 1420352_at response, Prss22 (protease, serine, 22)",Repl. 2,3.13
same,"probe 1420380_at response, Cc12 (chemokine (C-C motif) ligand 2)",Repl. 2,0.41
same,"probe 1420407_at response, Ltb4r1 (leukotriene B4 receptor 1)",Repl. 2,2.24
same,"probe 1420450_at response, Mmp10 (matrix metallopeptidase 10)",Repl. 2,3.93
same,"probe 1420537_at response, Kctd4 (potassium channel tetramerisation domain containing 4)",Repl. 2,2.58
same,"probe 1420760_s_at response, Ndrg1 (N-myc downstream regulated gene 1)",Repl. 2,2.04
same,"probe 1420913_at response, Slco2a1 (solute carrier organic anion transporter family, member 2a1)",Repl. 2,1.96
same,"probe 1420955_at response, Vsnl1 (visinin-like 1)",Repl. 2,0.47
same,"probe 1421134_at response, Areg (amphiregulin)",Repl. 2,4.16
same,"probe 1421269_at response, Ugcg (UDP-glucose ceramide glucosyltransferase)",Repl. 2,2.16
same,"probe 1421279_at response, Lamc2 (laminin, gamma 2)",Repl. 2,2.11
same,"probe 1421403_at response, Pi15 (peptidase inhibitor 15)",Repl. 2,1.96
same,"probe 1421551_s_at response, Ifi202b (interferon activated gene 202B)",Repl. 2,3.42
same,"probe 1421668_x_at response, Speer3 (spermatogenesis associated glutamate (E)-rich protein 3)",Repl. 2,2.60
same,"probe 1421679_a_at response, Cdkn1a (cyclin-dependent kinase inhibitor 1A (P21))",Repl. 2,4.13
same,"probe 1421888_x_at response, Aplp2 (amyloid beta (A4) precursor-like protein 2)",Repl. 2,0.63
same,"probe 1421943_at response, Tgfa (transforming growth factor alpha)",Repl. 2,1.92
same,"probe 1422028_a_at response, Ets1 (E26 avian leukemia oncogene 1, 5′ domain)",Repl. 2,1.91
same,"probe 1422101_at response, Tnfrsf23 (tumor necrosis factor receptor superfamily, member 23)",Repl. 2,1.93
same,"probe 1422138_at response, Plau (plasminogen activator, urokinase)",Repl. 2,2.19
same,"probe 1422139_at response, Plau (plasminogen activator, urokinase)",Repl. 2,2.82
same,"probe 1422222_at response, Ivl (involucrin)",Repl. 2,2.27
same,"probe 1422240_s_at response, Sprr2h (small proline-rich protein 2H)",Repl. 2,1.98
same,"probe 1422273_at response, Mmp1b (matrix metallopeptidase 1b (interstitial collagenase))",Repl. 2,3.17
same,"probe 1422324_a_at response, Pthlh (parathyroid hormone-like peptide)",Repl. 2,2.28
same,"probe 1422537_a_at response, Id2 (inhibitor of DNA binding 2)",Repl. 2,0.49
same,"probe 1422771_at response, Smad6 (MAD homolog 6 (Drosophila))",Repl. 2,0.47
same,"probe 1422924_at response, Tnfsf9 (tumor necrosis factor (ligand) superfamily, member 9)",Repl. 2,1.94
same,"probe 1423017_a_at response, Il1rn (interleukin 1 receptor antagonist)",Repl. 2,2.03
same,"probe 1423543_at response, Swap70 (SWA-70 protein)",Repl. 2,1.95
same,"probe 1423597_at response, Atp8a1 (ATPase, aminophospholipid transporter (APLT), class I, type 8A, member 1)",Repl. 2,1.88
same,"probe 1423635_at response, Bmp2 (bone morphogenetic protein 2)",Repl. 2,2.23
same,"probe 1423690_s_at response, Gpsm1 (G-protein signalling modulator 1 (AGS3-like, C. elegans))",Repl. 2,3.20
same,"probe 1423933_a_at response, 1600029D21Rik (RIKEN cDNA 1600029D21 gene)",Repl. 2,2.01
same,"probe 1424022_at response, Osgin1 (oxidative stress induced growth inhibitor 1)",Repl. 2,1.92
same,"probe 1424090_at response, Sdcbp2 (syndecan binding protein (syntenin) 2)",Repl. 2,4.46
same,"probe 1424306_at response, Elovl4 (elongation of very long chain fatty acids (FEN1/Elo2, SUR4/Elo3, yeast)-like 4)",Repl. 2,2.35
same,"probe 1424383_at response, Tmem51 (transmembrane protein 51)",Repl. 2,2.69
same,"probe 1424471_at response, Rapgef3 (Rap guanine nucleotide exchange factor (GEF) 3)",Repl. 2,1.89
same,"probe 1424638_at response, Cdkn1a (cyclin-dependent kinase inhibitor 1A (P21))",Repl. 2,2.67
same,"probe 1424783_a_at response, Ugt1a1 /// Ugt1a10 /// Ugt1a2 /// Ugt1a5 /// Ugt1a6a /// Ugt1a6b /// Ugt1aTc /// Ugt1a9 (UDP glucuronosyltransferase 1 family)",Repl. 2,0.43
same,"probe 1425452_s_at response, Fam84a (family with sequence similarity 84, member A)",Repl. 2,2.53
same,"probe 1425660_at response, Btbd3 (BTB (POZ) domain containing 3)",Repl. 2,1.92
same,"probe 1426037_a_at response, Rgs16 (regulator of G-protein signaling 16)",Repl. 2,2.93
same,"probe 1426181_a_at response, I124 (interleukin 24)",Repl. 2,4.76
same,"probe 1426260_a_at response, Ugt1a1 /// Ugt1a10 /// Ugt1a2 /// Ugt1a5 /// Ugt1a6a /// Ugt1a6b /// Ugt1aTc /// Ugt1a9 (UDP glucuronosyltransferase 1 family)",Repl. 2,0.45
same,"probe 1426300_at response, Alcam (activated leukocyte cell adhesion molecule)",Repl. 2,2.44
same,"probe 1426306_a_at response, LOC100046560 /// Maged2 (similar to melanoma antigen family D, 2 /// melanoma antigen, family D, 2)",Repl. 2,1.87
same,"probe 1426708_at response, Antxr2 (anthrax toxin receptor 2)",Repl. 2,2.15
same,"probe 1426806_at response, Obfc2a (oligonucleotide/oligosaccharide-binding fold containing 2A)",Repl. 2,2.02
same,"probe 1426848_at response, LOC100047481 /// Sec24b (similar to SEC24 related gene family, member B (S. cerevisiae) /// Sec24 related gene family, member B (S. cerevisiae))",Repl. 2,0.75
same,"probe 1426972_at response, Sec24d (Sec24 related gene family, member D (S. cerevisiae))",Repl. 2,2.26
same,"probe 1427278_at response, Clip4 (CAP-GLY domain containing linker protein family, member 4)",Repl. 2,2.03
same,"probe 1427364_a_at response, Odc1 (ornithine decarboxylase, structural 1)",Repl. 2,2.62
same,"probe 1427512_a_at response, Lama3 (laminin, alpha 3)",Repl. 2,2.47
same,"probe 1427527_a_at response, Pthlh (parathyroid hormone-like peptide)",Repl. 2,2.37
same,"probe 1427885_at response, Pold4 (polymerase (DNA-directed), delta 4)",Repl. 2,2.27
same,"probe 1428114_at response, Slc14a1 (solute carrier family 14 (urea transporter), member 1)",Repl. 2,2.47
same,"probe 1428195_at response, Ahcyl2 (S-adenosylhomocysteine hydrolase-like 2)",Repl. 2,2.06
same,"probe 1428228_at response, Pgm3 (phosphoglucomutase 3)",Repl. 2,2.13
same,"probe 1428419_at response, 5430411K18Rik (RIKEN cDNA 5430411K18 gene)",Repl. 2,2.28
same,"probe 1428851_at response, 1300014I06Rik (RIKEN cDNA 1300014I06 gene)",Repl. 2,2.01
same,"probe 1429700_at response, 3110040M04Rik (RIKEN cDNA 3110040M04 gene)",Repl. 2,2.47
same,"probe 1429844_at response, 2310043J07Rik (RIKEN cDNA 2310043J07 gene)",Repl. 2,0.53
same,"probe 1430010_at response, Ncapd2 (non-SMC condensin I complex, subunit D2)",Repl. 2,0.49
same,"probe 1430567_at response, Spink5 (serine peptidase inhibitor, Kazal type 5)",Repl. 2,0.53
